Measurements published in paper PMC10170656 (RSC Chemical Biology, 2023).
“Also recorded” adds a separate entry of the source.

Key:
TDP1 = TDP1 (Homo sapiens, UniProt Q9NUW8); assay: biochemical; settings: TDP1 IC50, Table 2: triazole, ether and phthalic acid isostere derivatives
[1] = Survival curve and cytotoxicity in HCT116 cells; format: cell-based; settings: human, HCT116 cells (colon cancer cell line)
HCT116 cells = assay: Synergistic effect of TDP1 inhibitors with camptothecin; format: cell-based, human; settings: concentrations below CC50, 72 h
TDP2 = molecular target: T1, TDP2 (Homo sapiens, UniProt O95551); format: biochemical
T1 sequence (O95551 1-362): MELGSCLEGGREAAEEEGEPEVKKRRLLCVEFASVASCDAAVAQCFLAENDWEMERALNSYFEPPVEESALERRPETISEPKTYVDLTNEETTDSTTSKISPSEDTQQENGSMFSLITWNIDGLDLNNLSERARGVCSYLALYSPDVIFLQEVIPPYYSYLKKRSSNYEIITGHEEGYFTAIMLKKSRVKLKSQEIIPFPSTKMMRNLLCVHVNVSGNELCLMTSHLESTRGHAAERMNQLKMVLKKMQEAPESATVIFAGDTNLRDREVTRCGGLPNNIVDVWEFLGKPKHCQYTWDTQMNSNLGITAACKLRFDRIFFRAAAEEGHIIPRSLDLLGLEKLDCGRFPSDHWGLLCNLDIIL

Sequence of TDP1 (Q9NUW8 whole entry): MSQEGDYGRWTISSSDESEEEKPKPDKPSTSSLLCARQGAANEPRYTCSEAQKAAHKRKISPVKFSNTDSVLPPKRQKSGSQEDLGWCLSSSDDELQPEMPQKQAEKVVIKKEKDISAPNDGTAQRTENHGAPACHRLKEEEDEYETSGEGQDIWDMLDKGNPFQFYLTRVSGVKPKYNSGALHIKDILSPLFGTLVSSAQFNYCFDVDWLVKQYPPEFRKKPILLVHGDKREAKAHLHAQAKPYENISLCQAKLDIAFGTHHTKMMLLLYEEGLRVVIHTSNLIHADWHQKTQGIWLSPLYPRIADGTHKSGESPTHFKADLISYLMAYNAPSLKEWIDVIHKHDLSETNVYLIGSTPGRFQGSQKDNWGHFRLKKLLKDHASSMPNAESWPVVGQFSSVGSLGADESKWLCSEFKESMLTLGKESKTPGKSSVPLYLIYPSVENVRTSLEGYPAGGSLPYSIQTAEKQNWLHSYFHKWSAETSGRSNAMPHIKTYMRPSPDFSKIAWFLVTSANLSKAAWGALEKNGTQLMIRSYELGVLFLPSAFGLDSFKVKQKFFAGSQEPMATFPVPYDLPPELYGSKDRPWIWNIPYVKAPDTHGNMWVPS

Compound | IC50 (TDP1) [µM] | CC50 at 72 h [1] [µM] | synergy with the TOP1 inhibitor CPT (HCT116 cells) | inhibitory potency against TDP1 relative to TDP2 (TDP2) [fold]
O=C(O)c1ccc(Nc2c(-c3ccccc3)nc3cc(-c4ccccc4)ccn23)cc1C(=O)O [Compound 9a, 4-((2,7-diphenylimidazo[1,2-a]pyridin-3-yl)amino)phthalic acid] | > 100 | – | – | –
N#Cc1ccc(-c2ccc(Cn3cc(-c4ccc(-c5nc6cc(-c7ccccc7)ccn6c5Nc5ccc(C(=O)O)cc5)cc4)nn3)cc2)nc1 [Compound 7d] | 3.3 ± 0.2 | 136 | act synergistically; also recorded: synergize | 8
O=C(O)c1ccc(Nc2c(-c3ccc(CCOCc4ccc(-c5ccccc5)cc4)cc3)nc3cc(-c4ccccc4)ccn23)cc1C(=O)O [Compound 9b, 4-((2-(4-(2-([1,1'-biphenyl]-4-ylmethoxy)ethyl)phenyl)-7-phenylimidazo[1,2-a]pyridin-3-yl)amino)phthalic acid] | 11.3 ± 1.93 | – | – | –
O=C(O)c1ccc(Nc2c(-c3ccc(CCOCc4ccc(-c5ccccn5)cc4)cc3)nc3cc(-c4ccccc4)ccn23)cc1C(=O)O [Compound 9c, 4-((7-phenyl-2-(4-(2-((4-(pyridin-2-yl)benzyl)oxy)ethyl)phenyl)imidazo[1,2-a]pyridin-3-yl)amino)phthalic acid] | 19.8 ± 1.35 | – | – | –
